Results on 4 compounds are retold here after patent US20090270495A1, “Inhibitors of Phosphodiesterase Types 1 To 5 Based on Dioclein, Floranol, and Analogs Thereof” (priority 2005, published 2009).

Where “and” joins values, the source holds several entries; their conditions need not be identical. Equal entries are not always repeated. Entries after “also recorded” stand apart in the source; their conditions may differ. Where two headings read alike, the source gives them in different places.

For series [1], the system named is PDE1. In words: PDE1 inhibition, enzyme isolated from smooth muscle of ox aorta. Type of series: biochemical. The conditions noted are these: PDE1 versus PDE2-PDE5.
The test system of series [2] is T1, PDE1.
T1 construct: IC50 PDE1 − calmodulin; other: without calmodulin; Ki PDE1 − calmodulin; other: with calmodulin; Ki PDE1 + calmodulin; other: versus literature value of 8-MM-IBMX; times more pot
Described as above. Type of series: biochemical.

Series [3] has as its target T2, PDE2 (Homo sapiens, UniProt O00408).
T2 construct: on the PDE2 isolated from human platelets; from tissue; host or cells: human platelets
In words: PDE2 inhibition, enzyme isolated from human platelets. It counts as biochemical.

Series [4] concerns PDE4. In words: PDE4 inhibition, enzyme isolated from smooth muscle of ox aorta. Type of series: biochemical.
Series [5] addresses T3, PDE5 (Bos taurus, UniProt Q28156).
T3 construct: isolated from the smooth muscle of ox aorta; from tissue; host or cells: smooth muscle of ox aorta
Briefly: PDE5 inhibition, enzyme isolated from smooth muscle of ox aorta. It counts as biochemical.

Series [6] relates to human saphenous vein. Briefly: Vasodilating effect on human saphenous vein pre-contracted with phenylephrine. As to conditions: for IC50: phenylephrine 3×10^−6M. As for the experimental part:
FIG. 2 represent the vasodilating effect of dioclein in the human saphenous vein, pre-contracted with phenylephrine (3×10^−6M) in the presence or absence of functional endothelium. The relaxation data represent the percentage of reduction of the contraction by phenylephrine in response to dioclein and have been expressed on average±SEM. *P<0.05 (two-way ANOVA with post-test comparison BONFERRONI. The vessels of 8 patients with and 8 without functional endothelium were analyzed.
The data represent the percentage of reduction of the contraction by phenylephrine in response to dioclein and have been expressed average±SEM. *P<0.05. ***P<0.001 (two-way ANOVA with post-test comparison BONFERRONI). One has analyzed 8 vessels of the control group, 5 vessels of the group incubated with H-89.
FIG. 4 illustrates the effect of Rp-8-pCPT cGMPS (10 μM) on the relaxation induced by dioclein on the human saphenous vein without functional endothelium, pre-contracted with phenylephrine (3×10^−6M). The data represent the percentage of reduction of the contraction with phenylephrine in response to dioclein and have been expressed in average±SEM. ***P<0.001 (two-way ANOVA with post-test comparison of BONFERRONI). One has analyzed 8 vessels of the control group and 5 vessels of the group incubated with Rp-8-pCPT cGMPS.
The data represent the percentage of reduction of the contraction with phenylephrine in response to dioclein and have been expressed in average±SEM. One has analyzed 8 vessels of the dioclein group, 7 vessels of the 8-MM-IBMX group and 9 vessels of the vinpocetine group.
FIG. 2 illustrates the effect of the flavonoids of the present invention on the human saphenous vein. […] FIG. 3 illustrates the effect of dioclein on the human saphenous vein without functional endothelium, in the absence and in the presence of an inhibitor selective of protein Kinase A, which is the intracellular receptor of AMPc.

The subject of series [7] is arterial pressure of mice. In words: Hypotensor effect on arterial pressure of mice. Type of series: in vivo. The conditions noted are these: dissolved with DMSO. On the procedure:
FIG. 7 is a representative example of the effect of dioclein (2.5 mg/kg) and of the inclusion product of dioclein in cyclodextrin (inclusion: 2.5 mg/kg), applied by intraperitoneal route, on the arterial pressure of mice. In the highlight we can see the average±SEM of the maximum effect achieved on 6 different mice. In these experiments dioclein and the inclusion product of dioclein in the cyclodextrin were dissolved with the aid of DMSO.
FIG. 8 is a representative example of the effect of dioclein (10 mg/kg) and of the inclusion product of dioclein in cyclodextrin (inclusion: 10 mg/kg), applied by oral route, on the arterial pressure of mice. In the highlight one can see the average±SEM of maximum effect achieve in 3 different mice. In this experiments dioclein and the inclusion product of dioclein in cyclodextrin were dissolved with the aid of DMSO.
FIG. 9 is a representative example of the effect of the inclusion product of dioclein in cyclodextrin (inclusion; 10 mg/kg), solubilized in water, applied by oral route, on the arterial pressure of mice.
FIG. 7 illustrates the effect of dioclein and of dioclein included in cyclodextrin, dissolved with the aid of DMSO on the arterial pressure of mice. […] FIG. 8 illustrates the effect of dioclein and of dioclein included in cyclodextrin dissolved with the aid of DMSO on the arterial pressure of mice when applied by oral route (gavage). […]

A short description of series [8]: Solubility. Type of series: physicochemical.
Series [9] has as its target T4, PDE3 (Bos taurus, UniProt A0A3Q1M1E8).
T4 sequence (A0A3Q1M1E8 1-1126): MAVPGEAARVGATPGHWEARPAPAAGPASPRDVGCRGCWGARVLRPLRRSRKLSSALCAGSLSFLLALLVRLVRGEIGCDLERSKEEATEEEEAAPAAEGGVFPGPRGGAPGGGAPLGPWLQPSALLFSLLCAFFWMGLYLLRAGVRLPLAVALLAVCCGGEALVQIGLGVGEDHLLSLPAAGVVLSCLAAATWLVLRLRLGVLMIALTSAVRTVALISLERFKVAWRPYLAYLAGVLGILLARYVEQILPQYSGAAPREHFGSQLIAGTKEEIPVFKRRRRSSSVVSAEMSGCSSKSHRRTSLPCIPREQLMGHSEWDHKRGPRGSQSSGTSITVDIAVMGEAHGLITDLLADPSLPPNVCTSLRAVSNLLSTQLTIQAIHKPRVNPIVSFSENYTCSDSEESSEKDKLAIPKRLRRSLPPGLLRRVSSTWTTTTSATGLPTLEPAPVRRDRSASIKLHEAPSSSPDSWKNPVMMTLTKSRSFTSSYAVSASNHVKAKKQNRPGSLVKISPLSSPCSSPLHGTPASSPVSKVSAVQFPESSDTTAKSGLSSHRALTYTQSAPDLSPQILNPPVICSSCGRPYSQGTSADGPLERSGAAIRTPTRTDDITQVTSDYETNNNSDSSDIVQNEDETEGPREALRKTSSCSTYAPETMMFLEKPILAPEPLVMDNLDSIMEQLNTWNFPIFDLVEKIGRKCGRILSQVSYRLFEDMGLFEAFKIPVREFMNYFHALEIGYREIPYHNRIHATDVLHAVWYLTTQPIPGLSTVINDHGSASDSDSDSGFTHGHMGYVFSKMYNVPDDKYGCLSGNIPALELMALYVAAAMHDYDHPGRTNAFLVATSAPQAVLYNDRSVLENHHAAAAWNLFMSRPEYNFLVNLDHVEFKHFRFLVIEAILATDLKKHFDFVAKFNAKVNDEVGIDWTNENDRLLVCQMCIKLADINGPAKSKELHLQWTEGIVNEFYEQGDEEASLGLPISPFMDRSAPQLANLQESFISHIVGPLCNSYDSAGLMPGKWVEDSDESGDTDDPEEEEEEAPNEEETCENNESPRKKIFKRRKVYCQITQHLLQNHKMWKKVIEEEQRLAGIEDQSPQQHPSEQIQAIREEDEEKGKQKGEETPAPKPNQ
Briefly: PDE3 inhibition, enzyme isolated from smooth muscle of ox aorta. It counts as biochemical.

For series [10], the system named is PDE1. The conditions noted are these: cited from earlier work.
Series [11] addresses PDE5 (Homo sapiens, UniProt O76074). As to conditions: cited from earlier work.
In series [12] the test system is PDE1 of bovine tissue. As to conditions: cited from earlier work.
The target of series [13] is PDE7 (Homo sapiens, UniProt Q9NP56). As to conditions: at the same concentrations (higher than 30 μM); cited from earlier work.
PDE7, sequence (Q9NP56 whole entry): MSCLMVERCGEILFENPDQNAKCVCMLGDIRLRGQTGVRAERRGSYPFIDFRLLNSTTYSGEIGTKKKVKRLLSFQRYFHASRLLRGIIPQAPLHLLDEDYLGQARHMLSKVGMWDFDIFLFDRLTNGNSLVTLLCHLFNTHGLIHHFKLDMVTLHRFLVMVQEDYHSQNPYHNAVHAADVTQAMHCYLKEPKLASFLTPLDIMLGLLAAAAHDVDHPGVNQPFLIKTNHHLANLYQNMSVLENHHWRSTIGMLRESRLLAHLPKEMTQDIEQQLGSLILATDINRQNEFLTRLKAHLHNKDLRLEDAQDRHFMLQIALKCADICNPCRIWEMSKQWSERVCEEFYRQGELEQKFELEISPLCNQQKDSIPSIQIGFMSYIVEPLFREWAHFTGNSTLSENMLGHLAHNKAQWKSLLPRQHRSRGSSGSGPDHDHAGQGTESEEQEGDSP
Series [14] concerns the target potassium channels of the type sensitive to high-conductance calcium (Homo sapiens, UniProt Q12791). The conditions noted are these: cited from earlier work.
Setting [15] is: without calmodulin, read-out: IC50 PDE1 − calmodulin.
Where [16] appears, read: activated, +GMPc, read-out: IC50 Activated PDE2 (+GMPc).
Where [17] appears, read: basal, read-out: IC50 Basal PDE2.
The mark [18] stands for this setting: without functional endothelium, read-out: Cl50 of vasodilating effect, absence of functional endothelium.

T2 sequence (O00408 whole entry): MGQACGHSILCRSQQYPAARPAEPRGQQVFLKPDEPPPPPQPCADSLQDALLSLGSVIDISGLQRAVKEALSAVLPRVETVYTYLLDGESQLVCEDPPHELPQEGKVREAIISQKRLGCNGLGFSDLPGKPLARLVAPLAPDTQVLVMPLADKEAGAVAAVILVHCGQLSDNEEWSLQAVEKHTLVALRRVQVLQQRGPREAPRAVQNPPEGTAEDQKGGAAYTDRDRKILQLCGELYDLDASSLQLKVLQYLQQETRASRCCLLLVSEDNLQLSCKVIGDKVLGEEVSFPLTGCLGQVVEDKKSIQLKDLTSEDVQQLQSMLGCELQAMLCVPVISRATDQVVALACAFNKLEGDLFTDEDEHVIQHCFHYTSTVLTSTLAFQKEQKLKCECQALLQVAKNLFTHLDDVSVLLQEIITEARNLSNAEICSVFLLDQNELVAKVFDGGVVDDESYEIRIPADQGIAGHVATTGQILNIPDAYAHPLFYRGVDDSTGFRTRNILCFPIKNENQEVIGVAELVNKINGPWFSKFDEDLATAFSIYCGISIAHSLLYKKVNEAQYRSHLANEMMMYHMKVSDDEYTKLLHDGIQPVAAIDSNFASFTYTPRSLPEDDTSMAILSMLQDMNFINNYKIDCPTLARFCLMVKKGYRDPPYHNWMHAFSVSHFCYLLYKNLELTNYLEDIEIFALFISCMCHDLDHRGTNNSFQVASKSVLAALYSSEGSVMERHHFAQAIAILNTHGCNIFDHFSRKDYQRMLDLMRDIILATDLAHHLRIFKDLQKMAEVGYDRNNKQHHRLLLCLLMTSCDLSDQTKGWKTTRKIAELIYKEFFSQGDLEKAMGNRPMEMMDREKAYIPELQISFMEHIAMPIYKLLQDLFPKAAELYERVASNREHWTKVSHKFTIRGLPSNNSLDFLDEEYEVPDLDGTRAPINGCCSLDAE
potassium channels of the type sensitive to high-conductance calcium, sequence (Q12791 whole entry): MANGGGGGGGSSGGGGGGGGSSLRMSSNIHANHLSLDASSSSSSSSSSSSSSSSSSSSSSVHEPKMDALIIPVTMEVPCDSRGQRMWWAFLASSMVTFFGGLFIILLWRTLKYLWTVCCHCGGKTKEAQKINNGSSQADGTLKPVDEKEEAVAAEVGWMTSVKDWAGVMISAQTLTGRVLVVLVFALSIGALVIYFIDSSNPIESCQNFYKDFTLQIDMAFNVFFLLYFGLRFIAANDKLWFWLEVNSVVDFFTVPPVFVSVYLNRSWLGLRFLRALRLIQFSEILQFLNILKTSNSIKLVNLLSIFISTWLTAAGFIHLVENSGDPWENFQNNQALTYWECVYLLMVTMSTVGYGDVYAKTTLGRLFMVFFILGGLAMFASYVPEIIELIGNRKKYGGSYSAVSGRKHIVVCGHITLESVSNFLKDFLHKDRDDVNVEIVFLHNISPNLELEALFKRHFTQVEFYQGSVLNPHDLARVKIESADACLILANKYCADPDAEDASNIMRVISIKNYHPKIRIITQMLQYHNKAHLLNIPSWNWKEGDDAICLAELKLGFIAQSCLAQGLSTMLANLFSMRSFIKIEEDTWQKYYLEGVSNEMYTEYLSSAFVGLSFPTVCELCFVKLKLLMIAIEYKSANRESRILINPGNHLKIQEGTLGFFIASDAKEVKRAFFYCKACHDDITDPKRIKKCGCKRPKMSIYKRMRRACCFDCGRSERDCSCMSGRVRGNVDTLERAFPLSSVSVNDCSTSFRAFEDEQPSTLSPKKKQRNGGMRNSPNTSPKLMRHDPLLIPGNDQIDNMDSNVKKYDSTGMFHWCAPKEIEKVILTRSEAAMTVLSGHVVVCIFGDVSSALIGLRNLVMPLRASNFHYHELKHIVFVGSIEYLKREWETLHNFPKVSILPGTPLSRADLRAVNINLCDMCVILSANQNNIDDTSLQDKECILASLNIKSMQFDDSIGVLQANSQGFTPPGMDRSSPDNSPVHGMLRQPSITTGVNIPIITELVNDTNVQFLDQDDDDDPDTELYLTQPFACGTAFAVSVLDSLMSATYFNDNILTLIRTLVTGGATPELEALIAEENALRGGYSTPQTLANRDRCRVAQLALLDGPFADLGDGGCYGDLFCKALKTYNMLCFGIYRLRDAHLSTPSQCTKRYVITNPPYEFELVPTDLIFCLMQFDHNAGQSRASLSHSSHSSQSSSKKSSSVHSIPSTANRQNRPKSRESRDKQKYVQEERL

As a reminder, the Ki is a dissociation constant, usually derived from enzyme kinetics or from competition with a known ligand. On to `COc1cc2c(c(O)c1OC)C(=O)CC(c1cc(O)ccc1O)O2` (stereo not shown) [Dioclein, 5, 2′,5′-trihydroxy-6,7-dimethoxyflavanone], for which the “selectivity: PDE1 inhibited at concentrations times smaller than for PDE2, PDE3, PDE4 and PDE5” value in series [1] is 20 to 100 times and 20-100 times. The IC50 in series [2] (calmodulin state not stated in text, listed as dioclein, read-out: IC50 of inhibitory effect on PDE1 (running text)) was determined as 1.44 ± 0.35 µM; in series [2] (calmodulin state not stated in text, read-out: IC50 of inhibitory effect on PDE1 (running text)) it was 1.4 µM; in series [2] (setting [15]), 2.47 ± 0.26 µM; in [3] (setting [16]) it was 38.2 ± 8.92 µM; in series [3] (setting [17]), 100 ± 0.5 µM; in series [4], 16.8 ± 1.42 µM. Besides, the IC50 in series [5] is 23 ± 5.5 µM; in series [6] (Homo sapiens, with functional endothelium, read-out: Cl50 of vasodilating effect, presence of functional endothelium) it was 3 ± 0.2 µM; in [6] (Homo sapiens, without functional endothelium, read-out: Cl50 of vasodilating effect, absence of functional endothelium) it was 11 ± 0.4 µM; in series [6] (setting [18]) it was 11.1 ± 2.7 µM. Further, the “times more potent than 8-MM-IBMX (PDE1)” value in series [2] (versus literature value of 8-MM-IBMX) is 8 times. Further, the “times more potent than vinpocetine (PDE1)” value in series [2] (versus literature value of vinpocetine) was “about 30 times”. Besides, the figures for the inhibition constant Ki in [2] (with calmodulin) and in series [2] (without calmodulin) were 0.59 µM and 0.62 µM, respectively. Besides, the “vasodilating effect in the presence of H-89 (protein kinase A inhibitor)” value in series [6] (without functional endothelium, H-89 1 μM) is “displaced to the right”. Further, the “effect on arterial pressure, intraperitoneal route” value in [7] (2.5 mg/kg i.p.) is listed as “reduced the arterial pressure of mice”. Moreover, in series [7] (10 mg/kg oral), the “effect on arterial pressure, oral route (gavage), DMSO” value is on record as “not active via oral route”. Besides, in series [8] (DMSO, methanol), the “solubility in DMSO and methanol” value was “soluble in DMSO and methanol”. Moreover, in series [8] (water), the solubility in water entry is listed as “insolubility in water; also recorded: low solubility in water; also recorded: very low solubility in water”.

In the case of `COc1c(O)c(CC=C(C)C)c2c(c1O)C(=O)[C@H](O)[C@@H](c1ccccc1O)O2` [Floranol], the IC50 worked out at 3.06 ± 0.14 µM in series [2] (with calmodulin, read-out: IC50 PDE1 + calmodulin); 2.75 ± 0.2 µM in series [2] (setting [15]); 65.3 ± 6.87 µM in series [3] (setting [16]); 26.8 ± 4.62 µM in [3] (setting [17]); 47.1 ± 5.25 µM in [9]; 11 ± 2.31 µM in series [4]. This compound had an IC50 in series [5] of 7.14 µM.

As for `COCc1nc2c([nH]1)c(=O)n(C)c(=O)n2CC(C)C` [8-MM-IBMX, 8-methoxymethyl-IBMX], the IC50 in series [6] (setting [18]) is 30.9 ± 16 µM; in series [10] it was 8 µM; in series [11], 10 µM.

In series [6] (without functional endothelium), `CCOC(=O)C1=C[C@]2(CC)CCCN3CCc4c(n1c1ccccc41)[C@@H]32` [Vinpocetine] came in with a maximum vasodilating effect of 30%. Also, the “concentrations showing inhibitory effect on PDE1” value in series [12] was “higher than 30 μM”. Further, the PDE7 inhibition entry in [13] is “inhibits PDE7”. Besides, the “direct activation of potassium channels” value in series [14] is “capable of directly activating potassium channels”.
